From BindingDB's records for patent US10065963 (Incyte Corporation, 2018)

Assays:
[1] = target: Tyrosine-protein kinase JAK1 (Homo sapiens, UniProt P23458); assay: In Vitro JAK Kinase Assay; conditions: pH 7.8; 25 °C
[2] = target: T1, Phosphatidylinositol 4,5-bisphosphate 3-kinase catalytic subunit delta isoform (Homo sapiens, UniProt O00329); assay: PI3K-delta Scintillation Proximity Assay; conditions: pH 6.7; 25 °C
T1 sequence (O00329 whole entry): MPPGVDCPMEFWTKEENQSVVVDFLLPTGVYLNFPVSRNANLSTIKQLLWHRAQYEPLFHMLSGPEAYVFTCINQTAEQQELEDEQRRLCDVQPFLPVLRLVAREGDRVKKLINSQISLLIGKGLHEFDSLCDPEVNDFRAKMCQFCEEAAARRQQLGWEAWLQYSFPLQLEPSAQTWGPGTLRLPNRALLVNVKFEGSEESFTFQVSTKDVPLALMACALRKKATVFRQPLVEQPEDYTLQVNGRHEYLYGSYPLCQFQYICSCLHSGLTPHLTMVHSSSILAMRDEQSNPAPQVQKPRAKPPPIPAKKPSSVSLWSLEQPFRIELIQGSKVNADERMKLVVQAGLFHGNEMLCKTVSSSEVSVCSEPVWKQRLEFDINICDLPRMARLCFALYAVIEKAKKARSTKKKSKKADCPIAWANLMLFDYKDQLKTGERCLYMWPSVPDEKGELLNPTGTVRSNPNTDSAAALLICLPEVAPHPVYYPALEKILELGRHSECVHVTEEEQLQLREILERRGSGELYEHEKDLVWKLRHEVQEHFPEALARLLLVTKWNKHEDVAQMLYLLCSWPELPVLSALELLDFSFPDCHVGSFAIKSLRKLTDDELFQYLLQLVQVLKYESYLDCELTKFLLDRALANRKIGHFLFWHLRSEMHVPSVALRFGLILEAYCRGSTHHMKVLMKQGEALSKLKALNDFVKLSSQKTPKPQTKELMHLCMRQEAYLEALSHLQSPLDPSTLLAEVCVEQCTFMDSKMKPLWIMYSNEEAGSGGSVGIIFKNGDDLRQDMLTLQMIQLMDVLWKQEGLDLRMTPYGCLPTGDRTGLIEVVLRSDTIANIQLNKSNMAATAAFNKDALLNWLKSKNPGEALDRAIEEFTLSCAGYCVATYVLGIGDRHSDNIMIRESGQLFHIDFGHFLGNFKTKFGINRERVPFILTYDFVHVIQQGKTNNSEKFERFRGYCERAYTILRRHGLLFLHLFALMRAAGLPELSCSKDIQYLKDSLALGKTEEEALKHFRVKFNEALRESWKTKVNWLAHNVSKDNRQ

[3] = target: Phosphatidylinositol 4,5-bisphosphate 3-kinase catalytic subunit gamma isoform (Homo sapiens, UniProt P48736); assay: PI3K-gamma Scintillation Proximity Assay; conditions: pH 6.7; 25 °C
Method: PI3Kγ (p110γ) Recombinant Human Protein was purchased from Life technology (Grand Island, N.Y.). […] The final concentration of DMSO in the assay was 2%. […] ATP, 13 nM PI3Kγ. […] The final concentration of SPA beads is 1.0 mg/mL.

Sequence of Tyrosine-protein kinase JAK1 (P23458 whole entry, canonical isoform): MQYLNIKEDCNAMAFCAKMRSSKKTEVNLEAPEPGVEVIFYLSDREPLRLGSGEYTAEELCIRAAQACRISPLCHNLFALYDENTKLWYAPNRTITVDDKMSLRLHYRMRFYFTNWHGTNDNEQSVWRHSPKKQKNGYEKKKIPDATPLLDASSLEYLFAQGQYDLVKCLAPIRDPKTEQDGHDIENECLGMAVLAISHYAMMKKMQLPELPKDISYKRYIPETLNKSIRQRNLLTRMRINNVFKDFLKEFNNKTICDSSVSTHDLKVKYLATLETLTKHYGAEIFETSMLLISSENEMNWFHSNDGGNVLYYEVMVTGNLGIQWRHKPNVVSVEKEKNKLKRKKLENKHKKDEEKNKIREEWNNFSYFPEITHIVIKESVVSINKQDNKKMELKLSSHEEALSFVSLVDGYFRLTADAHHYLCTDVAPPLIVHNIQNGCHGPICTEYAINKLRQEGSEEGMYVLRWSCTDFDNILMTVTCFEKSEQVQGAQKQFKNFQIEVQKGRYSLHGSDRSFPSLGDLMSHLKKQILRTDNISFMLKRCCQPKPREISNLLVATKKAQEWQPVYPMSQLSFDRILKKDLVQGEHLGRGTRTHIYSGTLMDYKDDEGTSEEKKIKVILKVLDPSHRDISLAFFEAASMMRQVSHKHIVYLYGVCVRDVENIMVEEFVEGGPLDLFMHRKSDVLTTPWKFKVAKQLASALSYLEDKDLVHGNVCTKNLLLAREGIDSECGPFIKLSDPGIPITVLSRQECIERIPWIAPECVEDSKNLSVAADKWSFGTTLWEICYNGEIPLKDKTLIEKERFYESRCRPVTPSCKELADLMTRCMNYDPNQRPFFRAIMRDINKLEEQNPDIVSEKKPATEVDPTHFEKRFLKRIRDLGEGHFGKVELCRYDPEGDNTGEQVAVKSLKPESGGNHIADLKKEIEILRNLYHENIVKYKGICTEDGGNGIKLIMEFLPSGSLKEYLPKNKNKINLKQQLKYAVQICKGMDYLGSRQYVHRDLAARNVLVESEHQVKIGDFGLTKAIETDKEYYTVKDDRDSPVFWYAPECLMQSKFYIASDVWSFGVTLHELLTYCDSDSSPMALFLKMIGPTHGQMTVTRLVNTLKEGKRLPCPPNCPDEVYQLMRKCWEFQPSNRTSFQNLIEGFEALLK
Sequence of Phosphatidylinositol 4,5-bisphosphate 3-kinase catalytic subunit gamma isoform (P48736 whole entry, canonical isoform): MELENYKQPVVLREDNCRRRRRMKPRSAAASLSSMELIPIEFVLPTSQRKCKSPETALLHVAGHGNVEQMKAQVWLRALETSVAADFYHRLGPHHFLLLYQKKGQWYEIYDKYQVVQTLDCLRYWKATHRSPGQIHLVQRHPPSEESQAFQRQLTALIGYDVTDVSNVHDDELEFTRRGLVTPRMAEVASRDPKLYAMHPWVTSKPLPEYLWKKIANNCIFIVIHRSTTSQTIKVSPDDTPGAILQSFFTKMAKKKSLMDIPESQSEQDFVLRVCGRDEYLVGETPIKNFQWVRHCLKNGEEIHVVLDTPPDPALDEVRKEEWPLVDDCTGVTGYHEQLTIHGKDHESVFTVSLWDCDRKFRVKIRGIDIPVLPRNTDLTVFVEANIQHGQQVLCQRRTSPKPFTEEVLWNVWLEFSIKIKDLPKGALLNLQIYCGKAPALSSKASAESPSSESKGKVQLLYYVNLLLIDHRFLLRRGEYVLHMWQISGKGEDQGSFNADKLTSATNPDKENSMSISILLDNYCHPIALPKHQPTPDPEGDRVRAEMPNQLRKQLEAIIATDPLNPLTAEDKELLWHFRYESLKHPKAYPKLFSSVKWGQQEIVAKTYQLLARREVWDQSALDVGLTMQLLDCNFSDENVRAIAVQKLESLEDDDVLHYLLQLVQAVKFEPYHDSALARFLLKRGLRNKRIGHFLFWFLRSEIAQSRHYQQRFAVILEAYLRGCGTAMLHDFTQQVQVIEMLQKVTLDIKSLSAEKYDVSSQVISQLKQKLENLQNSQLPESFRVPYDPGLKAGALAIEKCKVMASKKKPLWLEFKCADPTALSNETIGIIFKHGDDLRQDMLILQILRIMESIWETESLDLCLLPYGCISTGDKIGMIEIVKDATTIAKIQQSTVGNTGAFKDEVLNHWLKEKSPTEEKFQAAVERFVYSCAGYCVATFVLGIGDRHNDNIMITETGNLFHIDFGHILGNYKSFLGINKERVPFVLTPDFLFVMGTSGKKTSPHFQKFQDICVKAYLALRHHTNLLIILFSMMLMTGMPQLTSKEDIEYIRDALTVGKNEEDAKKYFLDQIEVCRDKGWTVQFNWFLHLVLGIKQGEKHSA

Structure (SMILES)	IC50 [1] [µM]	IC50 [2] [µM]	IC50 [3] [µM]
N#CCC(CN1CCN(C(=O)c2ccc(C#N)cc2F)CC1)n1cc(-c2ncnc3[nH]ccc23)cn1 (stereo not drawn) [US10065963, Compound 5]	< 0.1	–	–
C[C@H](NC(=O)c1c(N)nn2cccnc12)c1cc(Cl)c2cncn2c1N1CCS(=O)(=O)[C@@H](C)C1 [US10065963, Example 31B]	–	< 0.1	< 0.1
